US4499084A, “Ara-A Antiviral composition and method of administering the same” (priority 1983, dated 1985)
Values after ≈ are worked out from the molar mass of the structure shown. Where two headings read alike, the source gives them in different places.

How the values were obtained:
herpes simplex virus = settings: cited from earlier work
[1] = tested on: oral or genital herpes simplex virus disease; settings: cited from earlier work
animals and humans = settings: cited from earlier work
skin [2] = settings: applied to the skin; cited from earlier work
[3] = tested on: interstitial spaces and cell walls; settings: not told; cited from earlier work
skin [4] = settings: in vivo
Experimental: This rash, however, usually disappears shortly thereafter with no ill effects. Annals of the New York Academy of Sciences, […]. S. W. Jacob, E. E. Rosenhaum and D. C. Wood, Eds., Vol. 1 Dimethyl Sulfoxide 99, (marcel Depper, Inc., New York, N.Y. 1971); and Annals of the New York Academy of Sciences, Vol. 243 (1975). In the present invention DMSO is diluted to 70% with demineralized water before ara-A is added.

[5] = tested on: DNA viruses, including herpes simplex; settings: combined with dimethyl sulfoxide (DMSO); cited from earlier work
solubility = type: physicochemical; settings: organic solvent or mixture; DMSO solvent system; read-out: concentration achieved using DMSO as the solvent system
Experimental: By using DMSO as the solvent system, it is possible to achieve a concentration of 10 mg/ml or greater. DMSO transports the ara-A directly into the virus infected cell where active viral replication is occurring. The drug interfers with viral DNA synthesis causing inhibition of viral maturation.
DMSO serves two purposes in enhancing the therapeutic action of ara-A. First, DMSO allows a concentration of ara-A that is more than 20 times greater than can be achieved with water alone. […] It is this percutaneous property of DMSO that is apparently responsible for the extraordinary effectiveness of this medication.

varicella-zoster virus = settings: in vitro and in vivo (animal models or man); cited from earlier work
vaccinia virus = settings: in vitro and in vivo (animal models or man); cited from earlier work
[6] = cited from earlier work
cytomegalovirus = settings: in vitro and in vivo (animal models or man); cited from earlier work
man [7] = test: toxicity and side effects in man; type: in vivo; settings: average 150 pound man; converted from oral LD50 in rats and mice
Experimental: Regarding toxicity or other side effects on the patient, extensive pharmacology and toxicity studies ara-A have been carried out in animals and in man. […] This dose level indicates a low order of toxicity to a single parenteral dose. The acute oral LD50 in both rats and mice is greater than 5000 mg/kg. This amount would be equivalent to more than […] in an average 150 pound person. […] In the form used in the present invention and with treatment by topical application, it is highly unlikely that any toxic side effects of ara-A would be observed.

[8] = type: physicochemical
Source text: There are no special procedures involved in the preparation of the antiviral composition of the present invention. The demineralized water and DMSO can be mixed and the ara-A (and benzocaine if used) dissolved in the DMSO and water solution. The ara-A can be added to the pure DMSO, and water added last. When water and DMSO are mixed, the solution becomes warm because there is a positive heat of solution. […] Ara-A can be recovered from the DMSO and water solution virtually 100 percent as unchanged ara-A.

man [9] = settings: cited from earlier work
DNA viruses = settings: in vitro and in vivo (animal models or man); cited from earlier work
DNA polymerase = settings: cited from earlier work
mice = settings: cited from earlier work
Epstein-Barr (E-B) virus = settings: in vitro and in vivo (animal models or man); cited from earlier work
rats = settings: cited from earlier work
[10] = tested on: antiviral activity of ara-A; test: effect of benzocaine added to the medication on antiviral activity of ara-A; settings: benzocaine in the medication
Source text: The medication of the present invention has been prepared and used both ways.

patient = test: effect of benzocaine in DMSO on the patient; type: in vivo; settings: administered in DMSO

O=CC[C@@H](O)[C@H](O)[C@H](O)CO [2-deoxy-d-glucose]
destruction of herpes simplex virus in a laboratory setting (herpes simplex virus): will destroy the herpes simplex virus
success in combating oral or genital herpes simplex virus disease in a clinical setting [1]: none of these antiviral agents have been successful

C[S+](C)[O-] [DMSO, dimethyl sulfoxide]
toxicity of DMSO (animals and humans): essentially nontoxic
skin reaction to undiluted DMSO (skin [2]): sometimes may cause an itching or burning sensation with redness or a rash
permeation of interstitial spaces and cell walls [3]: unique ability of permeating the interstitial spaces and cell walls
skin irritation at 70% DMSO (skin [4]): usually nonirritating to normal skin

O=c1[nH]c(=O)n([C@H]2C[C@H](O)[C@@H](CO)O2)cc1I [IdU, 5-iododexyuridine]
clearing of skin lesions [5]: purportedly cleared up skin lesions
prevention of recurrence [5]: prevent recurrence

Nc1nc2c(ncn2COCCO)c(=O)[nH]1 [acyclovir]
destruction of herpes simplex virus in a laboratory setting (herpes simplex virus): will destroy the herpes simplex virus
success in combating oral or genital herpes simplex virus disease in a clinical setting [1]: none of these antiviral agents have been successful

Nc1ncnc2c1ncn2[C@@H]1O[C@H](CO)[C@@H](O)[C@@H]1O [ara-A, adenine-9-beta-D-arabinofuranoside]
solubility (solubility): ≥ 10000 µg/mL
activity against varicella-zoster virus (varicella-zoster virus): active
antiviral activity against the herpes simplex virus (herpes simplex virus): effective antiviral agent against the herpes simplex virus
destruction of herpes simplex virus in a laboratory setting (herpes simplex virus): will destroy the herpes simplex virus
activity against vaccinia virus (vaccinia virus): active
solubility in water ([6]; 25C): 450 µg/mL (≈ 1.68 mM)
solubility in water [6]: highly insoluble in water
success in combating oral or genital herpes simplex virus disease in a clinical setting [1]: none of these antiviral agents have been successful
effectiveness against oral or genital herpes ([1]; ointment form (ocular herpes) or infusion for 12 to 24 hours (herpes encephalitis)): Neither of these treatments are effective against oral or genital herpes
activity against cytomegalovirus (cytomegalovirus): active
amount equivalent to the acute oral LD50 in an average 150 pound person (man [7]): more than 750 grams
recovery of unchanged ara-A ([8]; from the DMSO and water solution): ~100%
chemical reaction between ara-A and DMSO ([8]; under the conditions of preparation): no chemical reaction between ara-A and DMSO
side effects of massive acute overdosage (man [9]; intravenous form, massive acute overdosage): without any serious side effect
redness and irritation after topical application (man [9]; topical application, some cases): redness and slight irritation
toxicity through topical application (man [9]; topical application): not possible to demonstrate toxicity through topical application
activity against a broad spectrum of DNA viruses (DNA viruses): active
inhibition of DNA polymerase (DNA polymerase): inhibits the enzyme DNA polymerase
acute oral LD50 (mice): greater than 5000 mg/kg
activity against Epstein-Barr virus (Epstein-Barr (E-B) virus): active
acute oral LD50 (rats): greater than 5000 mg/kg

CCOC(=O)c1ccc(N)cc1 [benzocaine]
effect of benzocaine on antiviral activity of ara-A [10]: does not impair the antiviral activity of ara-A
deleterious effect of benzocaine on the patient (patient): Nor does the benzocaine appear to have any deleterious affect on the patient

O=C(O)CP(=O)(O)O [phosphonacetic acid]
destruction of herpes simplex virus in a laboratory setting (herpes simplex virus): will destroy the herpes simplex virus
success in combating oral or genital herpes simplex virus disease in a clinical setting [1]: none of these antiviral agents have been successful

NC(=O)c1ncn([C@@H]2O[C@H](CO)[C@@H](O)[C@H]2O)n1 [ribavirin]
destruction of herpes simplex virus in a laboratory setting (herpes simplex virus): will destroy the herpes simplex virus
success in combating oral or genital herpes simplex virus disease in a clinical setting [1]: none of these antiviral agents have been successful
